Laboratory results: patent publication US10239825B2, “Ketamine derivatives” (Auckland Uniservices Limited, priority 2013, dated 2019)

Key:
[1] = test system: adult female Sprague-Dawley rats; test: rat infusion study: pedal withdrawal reflex PWR = 1 (analgesic effect); type: in vivo; settings: for minimal effective dose: Rattus norvegicus, iv, total drug administered to achieve PWR = 1, i.v. infusion; for PWR = 1 Dose, head-to-head ratio to ketamine / PWR = 1 Time, head-to-head ratio to ketamine: ratio compound/ketamine; for PWR = 1 Time: time from onset of i.v. infusion to PWR = 1
Experimental: (§1) All animal experiments were conducted at the Ruakura Research Centre, Hamilton, New Zealand, using experimental protocols reviewed and approved by the Ruakura Animal Ethics Committee (ethics ref 12604).
(§2) Following acquisition of baseline physiologic parameters (heart rate, respiratory rate, PWR, and righting reflex (RR)) adult female Sprague-Dawley rats of approximately 350-450 g were put under non-traumatic restraint and the marginal vein of the tail was cannulated. Ketamine or a compound of the invention at 10 mg/ml was administered via a minibore extension tube adequately secured to the tail. Infusions were commenced at a rate (weight-adjusted) to deliver 20 mg/kg/min initially (until the pedal withdrawal reflex score PWR=1), then were reduced to a rate of 6.7 mg/kg/min. Infusion rate was then titrated in an up-and-down fashion to maintain dorsal recumbency and a PWR=1 to 10 minutes before cessation. Three rats were used in each study, with each group of rats also acting as their own ketamine control. The order of study drug administration was determined by prior odds/evens randomisation with a recovery interval of at least one hour afforded between experiments. PWR and RR were recorded at 1 minute intervals throughout. The times from cessation of infusion to return of righting reflex (RRR), and from cessation of infusion to the animals displaying independent locomotion (walk) were recorded.
Pedal Withdrawal Reflex (PWR) Scoring:
Nociceptive testing in animals was conducted via 1 second application of constant pressure (firm digital pressure) over the forepaw of the animal. Pedal withdrawal reflex testing is primarily used to assess analgesic effect, and responses are graded accordingly: 0, absent; 1, flicker; 2, moderate withdrawal; 3, fast withdrawal; 4, Fast withdrawal with cry/preceding apnoea (modified from Buitrago, S. et al. J. Amer. Assoc. Lab. Animal. Sci. 2008, 47, 11-17).

[2] = test system: adult female Sprague-Dawley rats; test: rat infusion study: loss/recovery of righting reflex and walk (anaesthetic effect); type: in vivo; settings: for minimal effective dose: Rattus norvegicus, iv, total drug administered to achieve loss of righting reflex, i.v. infusion, read-out: LRR Dose; for LRR Dose, head-to-head ratio to ketamine / LRR Time, head-to-head ratio to ketamine / RRR Time, head-to-head ratio to ketamine / Walk Time, head-to-head ratio to ketamine: ratio compound/ketamine; for Walk Time: time from end of infusion to independent locomotion; for RRR Time: time from end of infusion to recovery of righting reflex; for LRR Time: time from onset of i.v. infusion to loss of righting reflex, 20 mg/kg/min initially
Experimental: as §1, §2
Loss of Righting Reflex (LRR):
This is primarily used to assess anaesthetic hypnotic effect. Righting reflex is judged absent when the rat fails to right from a position of dorsal recumbency to a position of sternal recumbency on three attempts performed in rapid succession. Dose to LRR is termed effective potency.

[3] = pharmacological, analgesic and anaesthetic properties; cited from earlier work
[4] = test system: adult female Sprague-Dawley rats; test: rat infusion study: loss/recovery of righting reflex and walk (anaesthetic effect); type: in vivo; settings: exploratory, mostly single-animal evaluations
[5] = in vivo; cited from earlier work
[6] = average over the various experiments
[7] = range over the various experiments

| Compound | minimal effective dose [1] [mg/kg] | PWR = 1 Dose, head-to-head ratio to ketamine [1] | PWR = 1 Time, head-to-head ratio to ketamine [1] | PWR = 1 Time [1] [s] | melting point [°C] | minimal effective dose [2] [mg/kg] | LRR Dose, head-to-head ratio to ketamine [2] | LRR Time, head-to-head ratio to ketamine [2] | RRR Time, head-to-head ratio to ketamine [2] | Walk Time, head-to-head ratio to ketamine [2] | Walk Time [2] [s] | RRR Time [2] [s] | LRR Time [2] [s] | sedative effect (in words) [4] | potency (in words) ([2]; rat infusion study, discussion) | further results |
| --- | --- | --- | --- | --- | --- | --- | --- | --- | --- | --- | --- | --- | --- | --- | --- | --- |
| CC(C)OC(=O)CCCCNC1(c2ccccc2Cl)CCCCC1=O.Cl (racemic) [rac-C4iPr, Isopropyl 5-((1-(2-chlorophenyl)-2-oxocyclohexyl)amino)pentanoate Hydrochloride] | 38 | 1.73 | 1.85 | 122 | 161 to 163 | 38 | 2.00 | 2.26 | 1.78 | 1.17 | 320 | 180 | 122 | – | – | – |
| CN[C@]1(c2ccccc2Cl)CCCCC1=O [(S)-Ketamine] | – | – | – | – | – | – | – | – | – | – | – | – | – | – | – | potency relative to the racemate [3]: about twice as potent |
| COC(=O)CCCCN(C)C1(c2ccccc2Cl)CCCCC1=O (stereo not drawn) [compound 21, Methyl 5-((1-(2-chlorophenyl)-2-oxocyclohexyl)(methyl)amino)pentanoate] | 148 | 5.29 | 5.30 | 435 | – | 145 | 7.25 | 7.37 | – | 0.09 | 201 | 0 | 420 | weak sedative activity | less potent | – |
| CCOC(=O)CCCN(C)C1(c2ccccc2Cl)CCCCC1=O.Cl (stereo not drawn) [compound 20, Ethyl 4-((1-(2-chlorophenyl)-2-oxocyclohexyl)(methyl)amino)butanoate Hydrochloride] | 196 | 6.76 | 6.98 | 600 | – | 196 | 7.84 | 8.00 | – | – | 0 | 0 | 600 | weak sedative activity | less potent | – |
| CC(C)OC(=O)CCN[C@@]1(c2ccccc2Cl)CCCCC1=O.Cl [(R)-C2iPr, (R)-Isopropyl 3-((1-(2-chlorophenyl)-2-oxocyclohexyl)amino)propanoate Hydrochloride] | 82 | 3.15 | 2.75 | 190 | 216 to 219 | 71 | 2.96 | 3.20 | – | 0.06 | 900 | 0 | 170 | – | – | – |
| CCOC(=O)CCNC1(c2ccccc2Cl)CCCCC1=O.Cl (racemic) [rac-C2Et, Ethyl 3-((1-(2-chlorophenyl)-2-oxocyclohexyl)amino)propanoate Hydrochloride] | 55 ± 25 | 1.45 | 1.62 | 154 ± 68 | 199 to 202 | 48 ± 23 | 1.78 | 1.75 | 0.11 | 0.10 | 253 ± 68 | 177 ± 51 | 135 ± 61 | – | – | – |
| CC(C)OC(=O)CCNC1(c2ccccc2Cl)CCCCC1=O.Cl (racemic) [rac-C2iPr, Iso-Propyl 3-((1-(2-chlorophenyl)-2-oxocyclohexyl)amino)propanoate Hydrochloride] | 37 ± 6 | 1.54 | 1.79 | 127 ± 13 | 203 to 205 | 33 ± 6 | 1.50 | 1.66 | 0.11 | 0.14 | 153 ± 33 | 83 ± 19 | 103 ± 17 | – | – | – |
| CCOC(=O)CCN(C)C1(c2ccccc2Cl)CCCCC1=O (stereo not drawn) [compound 19, Ethyl 3-((1-(2-chlorophenyl)-2-oxocyclohexyl)(methyl)amino)propanoate] | 99 | 3.96 | 4.20 | 290 | – | 95 | 4.50 | 4.67 | – | – | 0 | 0 | 280 | very weak sedative effect | about as potent as the n-Pr norketamine esters | recovery (in words) ([2]; rat infusion study, discussion): very rapid recovery |
| CNC1(c2ccccc2Cl)CCCCC1=O (racemic) [rac-ketamine, (2-o-Chlorophenyl)-2-methylamino-cyclohexanone, reference compound] | 26 ± 1 | – | – | – | – | 20 ± 1 | – | – | – | – | – | – | – | – | – | Time to PWR = 1, Average [1, 6]: 76 ± 9 s; Total dose to PWR = 1 ([1]; average over the various experiments (Table 4 row r8, second line so named)): 26 ± 4 mg/kg; Time to PWR = 1, Range [1, 7]: 60 to 95 s; Total dose to PWR = 1 ([1]; range over the various experiments (Table 4 row r8, second line so named)): 21 to 34 mg/kg; half-life [5]: 2 to 3 h; Time to RRR, Average [2, 6]: 1212 ± 318 s; Time to achieve LRR, Average [2, 6]: 61 ± 8 s; Time to walking, Average [2, 6]: 1709 ± 400 s; Total dose to LRR, Average ([2]; average over the various experiments (Table 4 row r6)): 21 ± 7 mg/kg; Time to RRR, Range [2, 7]: 863 to 2040 s; Time to achieve LRR, Range [2, 7]: 51 to 75 s; Time to walking, Range [2, 7]: 1100 to 2340 s; Total dose to LRR, Range ([2]; range over the various experiments (Table 4 row r6)): 17 to 27 mg/kg |
